Holding throughout (format): cell-based
For one assay, the target named is T1, Human 5-HT2B Receptor (Homo sapiens, UniProt P41595).
T1 construct: host or cells: CHO-K1
As to the kind of experiment: Serotonin receptor inositol phosphate 1 (IP1) assay (Multispan). The conditions noted are these: 5-HT 2b receptor; reference 1 μM serotonin; FIG. 2. As to the method:
(§1) Compounds 018 and 019 were assayed using a serotonin (2a, 2b and 2c receptors) inositol phosphate 1 (IP1) assay, provided by Multispan. The reference used was 1 μM serotonin to calculate the percentage relative response. The results can be seen in FIG. 2. Both compounds appear to some activity against all three target receptors in this assay.
(§2) IP-One Gq kit—cisbio—cat. No. 62IPAPEB
MULTISCREEN™ CHO-K1 Cell Line Stably Expressing Human 5-HT2B Receptor, Catalog DC1325-1

A further assay has as its target T2, Human 5-HT1B Receptor (Homo sapiens, UniProt P28222).
T2 construct: host or cells: HEK293T
The assay is described as follows: Serotonin receptor cAMP assay (Multispan, HTRF). The conditions noted are these: 5-HT 1b receptor; reference 10 μM forskolin, serotonin control; FIG. 1. The procedure: (§3) Compounds 018 (above, left) and 019 (above, right) were assayed using a serotonin (1a, 1b, 2a, 2c and 7 receptors) cAMP assay, provided by Multispan. The reference used was 10 μM forskolin (a cAMP activator) to calculate the percentage relative response, serotonin was used as the control. The results can be seen in FIG. 1. Compound 019 was active against in all other receptor assays.
(§4) cAMP Gs dynamic kit—cisbio—cat. No. 62AM4PEC
MULTISCREEN™ HEK293T Cell Line Stably Expressing Human 5-HT1B Receptor, Catalog DC1320a
MULTISCREEN™ HEK293T Cell Line Stably Expressing Human 5HT1B Receptor, Catalog DC1320a
(In general: Cyclic AMP is a second messenger, typically raised through Gs and lowered through Gi signalling.)

For assay [1], the target named is T3, Human 5-HT2C Receptor (Homo sapiens, UniProt P28335).
T3 construct: host or cells: CHO-K1
T3 sequence (P28335 33-458): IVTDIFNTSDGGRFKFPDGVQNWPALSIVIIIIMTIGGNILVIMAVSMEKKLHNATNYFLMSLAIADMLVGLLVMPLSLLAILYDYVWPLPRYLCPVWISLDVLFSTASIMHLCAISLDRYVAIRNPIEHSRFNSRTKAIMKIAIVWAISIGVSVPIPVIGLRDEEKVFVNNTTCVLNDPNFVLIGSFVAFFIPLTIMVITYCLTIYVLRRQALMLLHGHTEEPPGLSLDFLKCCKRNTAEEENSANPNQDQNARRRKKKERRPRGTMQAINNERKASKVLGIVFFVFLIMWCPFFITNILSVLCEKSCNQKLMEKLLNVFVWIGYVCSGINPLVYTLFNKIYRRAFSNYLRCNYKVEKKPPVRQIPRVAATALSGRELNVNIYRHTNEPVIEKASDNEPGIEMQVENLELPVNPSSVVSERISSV
As to the kind of experiment: Serotonin receptor cAMP assay (Multispan, HTRF). Conditions: 5-HT 2c receptor; reference 10 μM forskolin, serotonin control; FIG. 1. As to the method: as §3, §4
(§5) MULTISCREEN™ CHO-K1 Cell Line Stably Expressing Human 5-HT2C Receptor, Catalog DC1326-1

Assay [2] deals with T3, Human 5-HT2C Receptor. The assay is described as follows: Serotonin receptor inositol phosphate 1 (IP1) assay (Multispan). Conditions: 5-HT 2c receptor; reference 1 μM serotonin; FIG. 2. As to the method:
as §1, §2, §5

Another assay concerns the target T4, HTR2C (Homo sapiens, UniProt P28335).
T4 construct: host or cells: U2OS
T4 sequence (P28335 33-458): T3 sequence (P28335 33-458)
The assay is described as follows: Serotonin receptor B-arrestin assay (DiscoverX PathHunter). The conditions noted are these: 5-HT 2c receptor; reference 10 μM serotonin; FIG. 4. As to the method:
(§6) Compounds 018 and 019 were assayed using a serotonin (1a, 1b, 2a and 2c receptors) B-arrestin assay, provided by DiscoverX. The reference used was 10 μM serotonin to calculate the percentage relative response. The results can be seen in FIG. 4.
(§7) For the B-arrestin assays the cells came with the kits apart from the 2b receptor assay (Valiscreen serotonin 5HT-26 (human) cell line—ES-314-C, Perkin Elmer).

The target of a further assay is T5, HTR2A (Homo sapiens, UniProt P28223).
T5 construct: host or cells: U2OS
T5 sequence (P28223 whole entry): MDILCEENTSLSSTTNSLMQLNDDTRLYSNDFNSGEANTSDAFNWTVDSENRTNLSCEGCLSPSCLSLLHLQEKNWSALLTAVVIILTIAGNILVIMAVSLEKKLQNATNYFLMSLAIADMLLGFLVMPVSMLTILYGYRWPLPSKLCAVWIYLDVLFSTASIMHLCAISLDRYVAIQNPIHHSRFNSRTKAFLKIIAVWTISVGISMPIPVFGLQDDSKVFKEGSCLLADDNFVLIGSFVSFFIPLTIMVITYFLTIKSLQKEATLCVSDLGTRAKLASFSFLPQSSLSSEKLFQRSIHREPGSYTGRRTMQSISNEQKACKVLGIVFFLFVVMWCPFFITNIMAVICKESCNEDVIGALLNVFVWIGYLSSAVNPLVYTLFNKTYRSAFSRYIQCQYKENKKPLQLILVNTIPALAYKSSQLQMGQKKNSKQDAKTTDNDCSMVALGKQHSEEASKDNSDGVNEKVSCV
The description is as above. The conditions noted are these: 5-HT 2a receptor; reference 10 μM serotonin; FIG. 4. As to the method:
as §6, §7

A further assay addresses T6, HTR1B (Homo sapiens, UniProt P28222).
T6 construct: host or cells: U2OS
Described as above. The conditions noted are these: 5-HT 1b receptor; reference 10 μM serotonin; FIG. 4. The procedure: as §6, §7

Another assay has as its target T7, HTR1A (Homo sapiens, UniProt P08908).
T7 construct: host or cells: CHO-K1
T7 sequence (P08908 1-422): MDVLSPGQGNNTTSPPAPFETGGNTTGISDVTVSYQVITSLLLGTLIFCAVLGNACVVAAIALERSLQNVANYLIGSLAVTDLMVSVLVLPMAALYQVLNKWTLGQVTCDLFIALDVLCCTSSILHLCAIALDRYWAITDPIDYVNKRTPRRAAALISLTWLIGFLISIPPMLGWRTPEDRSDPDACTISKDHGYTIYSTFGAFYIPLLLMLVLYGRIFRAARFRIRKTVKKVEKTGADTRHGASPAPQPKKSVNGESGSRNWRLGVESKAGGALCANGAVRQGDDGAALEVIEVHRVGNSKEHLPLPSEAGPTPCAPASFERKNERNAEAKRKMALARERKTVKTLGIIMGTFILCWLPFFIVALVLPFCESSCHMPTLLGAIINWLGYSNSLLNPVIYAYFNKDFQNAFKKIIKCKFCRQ
The assay is described as above. The conditions noted are these: 5-HT 1a receptor; reference 10 μM serotonin; FIG. 4. The procedure: as §6, §7

Assay [3] deals with T8, Human 5-HT2A Receptor (Homo sapiens, UniProt P28223).
T8 construct: host or cells: CHO-K1
T8 sequence (P28223 whole entry): as the sequence (P28223 whole entry) above
The assay is described as follows: Serotonin receptor cAMP assay (Multispan, HTRF). Conditions: 5-HT 2a receptor; reference 10 μM forskolin, serotonin control; FIG. 1. The procedure: as §3, §4
(§8) MULTISCREEN™ CHO-K1 Cell Line Stably Expressing Human 5-HT2A Receptor, Catalog DC1324-1

In assay [4] the target is T3, Human 5-HT2C Receptor. As to the kind of experiment: Serotonin receptor calcium (Ca2+) assay (Multispan, FLIPR). Conditions: 5-HT 2c receptor; reference 10 μM serotonin; FIG. 3. As to the method:
(§9) Compounds 018 and 019 were assayed using a serotonin (2a, 2b and 2c receptors) calcium (Ca^2+) assay, provided by Multispan. The reference used was 10 μM serotonin to calculate the percentage relative response in relative light units (RLU). The results can be seen in FIG. 3. Both compounds have some activity against the 2a and 2c receptors.
(§10) FLIPR calcium 6 assay explorer kit—VWR—cat. No. MLDVR8190
as §5

Another assay has as its target T9, Human 5-HT7 Receptor (Homo sapiens, UniProt P34969).
T9 construct: host or cells: HEK293T
As to the kind of experiment: Serotonin receptor cAMP assay (Multispan, HTRF). The conditions noted are these: 5-HT 7 receptor; reference 10 μM forskolin, serotonin control; FIG. 1. The procedure: as §3, §4
MULTISCREEN™ HEK293T Cell Line Stably Expressing Human 5-HT7 Receptor, Catalog DC1334

The target in assay [5] is T8, Human 5-HT2A Receptor. As to the kind of experiment: Serotonin receptor calcium (Ca2+) assay (Multispan, FLIPR). The conditions noted are these: 5-HT 2a receptor; reference 10 μM serotonin; FIG. 3. As to the method: as §9, §10, §8
The target in a further assay is T10, Human 5-HT1A Receptor (Homo sapiens, UniProt P08908).
T10 construct: host or cells: HEK293T
T10 sequence (P08908 1-422): T7 sequence (P08908 1-422)
The assay is described as follows: Serotonin receptor cAMP assay (Multispan, HTRF). Conditions: 5-HT 1a receptor; reference 10 μM forskolin, serotonin control; FIG. 1. The procedure: as §3, §4
MULTISCREEN™ HEK293T Cell Line Stably Expressing Human 5-HT1A Receptor, Catalog DC1319a

For assay [6], the target named is T8, Human 5-HT2A Receptor. As to the kind of experiment: Serotonin receptor inositol phosphate 1 (IP1) assay (Multispan). Conditions: 5-HT 2a receptor; reference 1 μM serotonin; FIG. 2. As to the method:
as §1, §2, §8

The structures appear in SMILES notation.

T6 sequence (P28222 whole entry): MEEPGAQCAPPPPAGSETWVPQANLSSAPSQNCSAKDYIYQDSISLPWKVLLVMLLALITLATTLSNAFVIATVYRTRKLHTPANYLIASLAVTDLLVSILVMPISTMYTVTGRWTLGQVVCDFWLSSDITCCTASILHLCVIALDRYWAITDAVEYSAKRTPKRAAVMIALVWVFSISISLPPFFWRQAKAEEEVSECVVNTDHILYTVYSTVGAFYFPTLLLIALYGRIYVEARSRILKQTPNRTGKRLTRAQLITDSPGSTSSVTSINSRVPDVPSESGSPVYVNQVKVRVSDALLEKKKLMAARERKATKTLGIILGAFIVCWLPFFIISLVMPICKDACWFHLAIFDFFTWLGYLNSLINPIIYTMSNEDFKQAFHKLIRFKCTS
T1 sequence (P41595 whole entry): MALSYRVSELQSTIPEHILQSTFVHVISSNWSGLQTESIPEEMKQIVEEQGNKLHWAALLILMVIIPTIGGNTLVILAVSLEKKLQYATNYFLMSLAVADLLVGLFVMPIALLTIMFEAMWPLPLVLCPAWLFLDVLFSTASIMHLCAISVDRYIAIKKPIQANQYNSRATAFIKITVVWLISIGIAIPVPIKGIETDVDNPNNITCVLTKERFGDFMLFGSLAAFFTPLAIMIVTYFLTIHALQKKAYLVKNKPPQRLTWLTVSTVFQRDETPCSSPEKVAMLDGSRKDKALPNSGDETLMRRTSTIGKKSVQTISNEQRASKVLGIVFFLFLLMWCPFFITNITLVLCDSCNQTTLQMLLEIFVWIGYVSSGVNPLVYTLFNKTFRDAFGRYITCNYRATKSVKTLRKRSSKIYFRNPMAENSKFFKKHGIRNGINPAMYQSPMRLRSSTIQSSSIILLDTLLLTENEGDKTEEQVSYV
T2 sequence (P28222 whole entry): as the sequence (P28222 whole entry) above
T9 sequence (P34969 whole entry): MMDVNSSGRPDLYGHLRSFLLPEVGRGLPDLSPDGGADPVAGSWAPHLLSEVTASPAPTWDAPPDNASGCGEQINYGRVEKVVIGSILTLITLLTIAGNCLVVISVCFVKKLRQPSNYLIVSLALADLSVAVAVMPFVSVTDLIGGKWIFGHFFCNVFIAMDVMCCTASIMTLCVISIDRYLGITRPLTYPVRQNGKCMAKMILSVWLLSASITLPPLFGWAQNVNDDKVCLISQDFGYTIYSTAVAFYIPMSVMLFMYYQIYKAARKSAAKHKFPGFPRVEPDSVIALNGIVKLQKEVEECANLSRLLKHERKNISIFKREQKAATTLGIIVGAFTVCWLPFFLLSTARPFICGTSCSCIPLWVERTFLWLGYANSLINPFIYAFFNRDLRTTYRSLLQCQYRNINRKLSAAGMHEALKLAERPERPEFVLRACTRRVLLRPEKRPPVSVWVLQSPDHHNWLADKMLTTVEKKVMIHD

In the case of `CC(C)NC(=O)[C@@H]1C=C2c3cccc4[nH]cc(c34)C[C@H]2N(C)C1` [Compound 019, (4R,6R,7R)-6-methyl-4-[(propan-2-yl)carbamoyl]-6,11-diazatetra-cyclo[7.6.1.0^2,^7^7.0^12,^16] hexadeca-1(16),2,9,12,14-pentaen-6-ium], the IP1 assay activity entry at Human 5-HT2B Receptor, at Human 5-HT2C Receptor [2] and on Human 5-HT2A Receptor [6] was “some activity” each time. Besides, the cAMP assay activity result on Human 5-HT1B Receptor is reported as “active”; on Human 5-HT2C Receptor [1] it was “active”; at Human 5-HT2A Receptor [3] it was “stimulates the 5HT2aR leading to downstream activation of cAMP”; at Human 5-HT7 Receptor, “active”; at Human 5-HT1A Receptor, “active”. The B-arrestin assay activity entry on HTR2C, on HTR2A, on HTR1B and at HTR1A was “some activity” each time. Further, the “Calcium (Ca2+) assay activity” value on Human 5-HT2C Receptor [4] and on Human 5-HT2A Receptor [5] was “some activity” throughout.

As to `CCCCCN(C(=O)[C@@H]1C=C2c3cccc4[nH]cc(c34)C[C@H]2N(C)C1)C(C)C` [Compound 018, (4R,6R,7R)-6-methyl-4-[pentyl(propan-2-yl)carbamoyl]-6,11-diazatetra-cyclo[7.6.1.0^2,^7.0^12,^16] hexadeca-1(16),2,9,12,14-pentaen-6-ium], the IP1 assay activity entry at Human 5-HT2B Receptor, at Human 5-HT2C Receptor [2] and at Human 5-HT2A Receptor [6] was “some activity” each time. For the same compound, the B-arrestin assay activity result at HTR2C, at HTR2A, at HTR1B and at HTR1A was “some activity” in each case. In addition, the “Calcium (Ca2+) assay activity” value at Human 5-HT2C Receptor [4] and on Human 5-HT2A Receptor [5] was “some activity” in each case.

These data come from patent publication US12275735B2, “Ergoline analogues” (BECKLEY PSYTECH LIMITED, priority 2021, dated 2025).
